Assay results from patent US5686486A, “4-hydroxy-benzopyran-2-ones and 4-hydroxy-cycloalkyl[b]pyran-2-ones useful to treat retroviral infections” (priority 1995, dated 1997).
Values joined by “and” are separate entries in the source; they are usually repeats but may differ in a detail not shown here. Equal values may be shown once. Read-outs that look alike come from different tables or passages of the source.

Experiments:
[1] = target: T1, HIV-1 protease (Human immunodeficiency virus type 1 group M subtype B, UniProt P04585); test: biochemical
Method in brief: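 Enzyme (40 nM stock) and substrate (200 μM stock) incubated with inhibitor, 24–48 two-fold serial concentrations, for 90 min at room temperature, then quenched with avidin beads. Nonlinear least-squares analysis gives Ki; a known-Ki inhibitor validates each run.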

[2] = target: T1, HIV-1 protease; test: biochemical; settings: for inhibition at 0.123 µM: read-out: HIV-1 Protease % Inhib, dose 0.123 uM; for inhibition at 0.37 µM: read-out: HIV-1 Protease % Inhib, dose 0.370 uM; for inhibition at 1.1 µM: read-out: HIV-1 Protease % Inhib, dose 1.100 uM; for inhibition at 3.3 µM: read-out: HIV-1 Protease % Inhib, dose 3.300 uM; for inhibition at 10 µM: read-out: HIV-1 Protease % Inhib, dose 10.000 uM; for inhibition at 30 µM: read-out: HIV-1 Protease % Inhib, dose 30.000 uM; for inhibition at 1 µM: read-out: HIV-1 Protease % Inhib, dose 1.000 uM; for inhibition at 100 µM: read-out: HIV-1 Protease % Inhib, dose 100.000 uM; for inhibition at 0.41 µM: read-out: HIV-1 Protease % Inhib, dose 0.410 uM; for inhibition at 1.23 µM: read-out: HIV-1 Protease % Inhib, dose 1.230 uM; for inhibition at 3.7 µM: read-out: HIV-1 Protease % Inhib, dose 3.700 uM; for inhibition at 11 µM: read-out: HIV-1 Protease % Inhib, dose 11.000 uM; for inhibition at 33 µM: read-out: HIV-1 Protease % Inhib, dose 33.000 uM
Method in brief: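 Percent inhibition derived from fluorescent cleavage product separated by filtration after streptavidin-bead capture of intact biotin/FITC substrate. Reaction: enzyme (10 μl, 0.1 μM stock) with substrate (20 μl, 0.2 μM stock) and compound, 1 h at room temperature in dark, pH 5.5 acetate buffer with 1.0 M NaCl and 0.05% NP-40.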

Structure (SMILES) | Ki ([1]; read-out: HIV-1 FITC KI) | inhibition at 0.123 µM [2] | inhibition at 0.37 µM [2] | inhibition at 1.1 µM [2] | inhibition at 3.3 µM [2] | inhibition at 10 µM [2] | inhibition at 30 µM [2] | inhibition at 1 µM [2] | inhibition at 100 µM [2] | Ki ([1]; HIV-1 FITC KI) | inhibition at 0.41 µM [2] | inhibition at 1.23 µM [2] | inhibition at 3.7 µM [2] | inhibition at 11 µM [2] | inhibition at 33 µM [2]
O=c1oc2c(c(O)c1C(c1cccc(NS(=O)(=O)c3ccc(OC(F)(F)F)cc3)c1)C1CC1)CCCCCC2 (centres unmarked) [Example 312, N-[3-[Cyclopropyl(5,6,7,8,9,10-hexahydro-4-hydroxy-2-oxo-2-cycloocta[b]pyran-3-yl)methyl]phenyl]-4-(trifluoromethoxy)-benzenesulfonamide] | 4 nM | 48.2% | 83.6% | 89.7% | 106% | 114% | 110% | – | – | – | – | – | – | – | –
O=C(NCc1ccc(S(=O)(=O)Nc2cccc(C(c3c(O)c4c(oc3=O)CCCCCC4)C3CC3)c2)s1)c1ccccc1 (centres unmarked) [Example 296, N-[[5-[[[3-[Cyclopropyl(5,6,7,8,9,10-hexahydro-4-hydroxy-2-oxo-2H-cycloocta[b]pyran-3-yl)methyl]phenyl]amino]sulfonyl]-2-thienyl]methyl]-benzamide] | 24 nM | 14.6% | 74.8% | 95.5% | 104% | 108% | 114% | – | – | – | – | – | – | – | –
O=c1oc2c(c(O)c1C(c1cccc(NS(=O)(=O)c3cc(Cl)c(Cl)s3)c1)C1CC1)CCCCCC2 (centres unmarked) [Example 302, 4,5-Dichloro-N-[3-[cyclopropyl(5,6,7,8,9,10-hexahydro-4-hydroxy-2-oxo-2H-cycloocta[b]pyran-3-yl)methyl]phenyl]-2-thiophenesulfonamide] | 2.7 nM | 78.6% | 97.8% | 105% | 113% | 115% | 112% | – | – | – | – | – | – | – | –
O=c1oc2c(c(O)c1C(c1ccccc1)C1CC1)CCCCCCCC2 (centres unmarked) [Example 116, 3-(Cyclopropylphenylmethyl)-5,6,7,8,9,10,11,12-octahydro-4-hydroxy-2H-cyclodeca[b]pyran-2-one] | 558 nM | – | – | – | – | 65.7% | – | 23% | 102% | – | – | – | – | – | –
O=C(Nc1cccc(S(=O)(=O)Nc2cccc(C(c3c(O)c4c(oc3=O)CCCCCC4)C3CC3)c2)c1)c1ccccc1 (centres unmarked) [Example 351, N-[3-[[[3-[Cyclopropyl(5,6,7,8,9,10-hexahydro4-hydroxy-2-oxo-2H-cycloocta[b]pyran-3-yl)methyl]phenyl]amino]sulfonyl]phenyl]-benzamide] | 16.4 nM | 11.2% | 49.3% | 76.6% | 93.9% | 97.8% | 95.8% | – | – | – | – | – | – | – | –
O=C(Nc1cccc(C(c2c(O)c3c(oc2=O)CCCCCC3)C2CC2)c1)c1ccc(F)cc1 (centres unmarked) [Example 210, Benzamide, N-[3-[cyclopropyl(5,6,7,8,9,10-hexahydro4-hydroxy-2-oxo-2H-cycloocta[b]pyran-3-yl)methyl]phenyl]-4-fluoro-] | 55 nM | 19.7% | 31.5% | 58.1% | 77.6% | 88.8% | 97.3% | – | – | – | – | – | – | – | –
O=c1oc2ccccc2c(O)c1C1CCN(Cc2ccccc2)c2ccccc21 (centres unmarked) [Example 159, 3-(1-Benzyl-1,2,3,4-tetrahydro-quinolin4-yl)-4-hydroxy-chromin-2-one] | – | – | – | – | – | – | – | – | 91.1% | 2400 nM | < 10% | 14.4% | 39.8% | 74.3% | 84.2%
COC(=O)c1cccc(S(=O)(=O)Nc2cccc(C(c3c(O)c4c(oc3=O)CCCCCC4)C3CC3)c2)c1 (centres unmarked) [Example 354, 3-[[[3-[Cyclopropyl(5,6,7,8,9,10-hexahydro-4-hydroxy-2-oxo-2H-cycloocta[b]pyran-3-yl)methyl]phenyl]amino]sulfonyl]-benzoic acid, methyl ester] | 1.45 nM | 71.4% | 86.4% | 96.1% | 100% | 103% | 108% | – | – | – | – | – | – | – | –
CC(C)(C)C(c1ccccc1)c1c(O)c2ccccc2oc1=O (centres unmarked) [Example 152, 3-(2,2-Dimethyl-1-phenyl-propyl)-4-hydroxy-chromen-2-one] | – | – | – | – | – | – | – | – | 110% | 1010 nM | < 10% | 14.2% | 35.5% | 73.7% | 102%
O=C(Cc1ccccc1)Nc1cccc(C(c2c(O)c3c(oc2=O)CCCCCC3)C2CC2)c1 (centres unmarked) [Example 207, N-[3-[Cyclopropyl(5,6,7,8,9,10-hexahydro-4-hydroxy-2-oxo-2H-cycloocta[b]pyran-3-yl)methyl]phenyl]-benzacetamide] | 33.4 nM | 14% | 44.1% | 74% | 93.8% | 83% | 78.7% | – | – | – | – | – | – | – | –
O=c1oc2c(c(O)c1C(c1ccccc1)C1CC1)CCCCCC2C(O)C1CC1 (centres unmarked) [Example 176, 10-(Cyclopropylhydroxymethyl)-3-(cyclopropylphenylmethyl)-5,6,7,8,9, 10-hexahydro-4-hydroxy-2H-cycloocta[b]pyran-2-one] | 37 nM | – | 27.3% | 82.6% | 104% | 109% | 118% | – | – | – | – | – | – | – | –
CCCC(c1ccccc1)c1c(O)c2c(oc1=O)CCCCCC2 (centres unmarked) [Example 369, 5,6,7,8,9,10-Hexahydro-4-hydroxy-3-(1-phenylbutyl)-2H-cycloocta[b]pyran-2-one] | 28.5 nM | 54.9% | 83.5% | 96% | 97.1% | 111% | 93.9% | – | – | – | – | – | – | – | –
CC1(C)C2CCC1(CS(=O)(=O)Nc1cccc(C(c3c(O)c4c(oc3=O)CCCCCC4)C3CC3)c1)C(=O)C2 (centres unmarked) [Example 333, N-[3-[Cyclopropyl(5,6,7,8,9,10-hexahydro-4-hydroxy-2-oxo-2H-cycloocta[b]pyran-3-yl)methyl]phenyl]-7,7-dimethyl-2-oxo-bicyclo[2.2.1]heptane-1-methanesulfonamide] | 104 nM | – | 28.3% | 62.2% | 82% | 102% | 110% | – | – | – | – | – | – | – | –
CCCC1CCCCCc2c1oc(=O)c(C(c1ccccc1)C1CC1)c2O (centres unmarked) [Example 128, 3-(Cyclopropyl-phenyl-methyl)-4-hydroxy-10-propyl-5,6,7,8,9,10-hexahydro-cycloocta[b]pyran-2-one] | 26 nM | 32.5% | 85.6% | 102% | 112% | 107% | 102% | – | – | – | – | – | – | – | –
CCCC(c1cccc(NS(=O)(=O)c2cccc3cccnc23)c1)c1c(O)c2c(oc1=O)CCCCCC2 (centres unmarked) [Example 432, 8-Quinolinesulfonamide, N-[3-[1-(5,6,7,8,9,10-hexahydro4-hydroxy-2-oxo-2H-cycloocta[b]pyran-3-yl)butyl]phenyl]-] | 1.65 nM | 101% | 104% | 111% | 109% | 107% | 98% | – | – | – | – | – | – | – | –
CCCS(=O)(=O)Nc1cccc(C(c2c(O)c3c(oc2=O)CCCCCC3)C2CC2)c1 (centres unmarked) [Example 324, N-[3-[Cyclopropyl(5,6,7,8,9,10-hexahydro-4-hydroxy-2-oxo-2H-cycloocta[b]pyran-3-yl)methyl]phenyl]-1-propanesulfonamide] | 4 nM | 44.3% | 87.5% | 103% | 108% | 116% | 117% | – | – | – | – | – | – | – | –
C=CS(=O)(=O)Nc1cccc(C(CC)c2c(O)c3ccccc3oc2=O)c1 (centres unmarked) [Example 137, Ethenesulfonic acid (3-(1-(4-hydroxy-2-oxo-2H-chromen-3-yl)-propyl)-phenyl)-amide] | – | – | – | – | – | 62.9% | – | 11.3% | 89.1% | 1750 nM and 2200 nM | – | – | – | – | –
O=C(CCN1CCCCC1)Nc1cccc(C(c2c(O)c3c(oc2=O)CCCCCC3)C2CC2)c1 (centres unmarked) [Example 205, 1-Piperidinepropanamide, N-[3-[cyclopropyl(5,6,7,8,9,10-hexahydro4-hydroxy-2-oxo-2H-cycloocta[b]pyran-3-yl)methyl]phenyl]-] | 26.1 nM | 12.6% | 56.4% | 76.6% | 94.2% | 109% | 104% | – | – | – | – | – | – | – | –
O=c1oc2c(c(O)c1C(C1CC1)C1CC1)CCCCCC2Cc1ccccc1 (centres unmarked) [Example 123, 10-Benzyl-3-dicyclopropylmethyl-4-hydroxy-5,6,7,8,9,10-hexahydro-cycloocta[b]pyran-2-one] | 260 nM | – | – | – | – | – | – | – | 78.9% | – | 23.7% | 59.1% | 82.5% | 88.3% | 83.9%
